Data as given in US10954269B2, “Anti-inflammatory tripeptides” (Dr. August Wolff Gmbh & Co. KG Arzneimittel, priority 2013, dated 2021).

What was measured:
primary murine T-cells = assay: Cytokine secretion on protein level in activated primary murine T-cells (13-plex FACS / Luminex, supernatant); format: cell-based, C57BL/6 mice; conditions: for IL-1 cytokine concentration / IL-2 cytokine concentration / IL-4 cytokine concentration / IL-5 cytokine concentration / IL-6 cytokine concentration / IL-10 cytokine concentration / IL-13 cytokine concentration / IL-17 cytokine concentration / IL-21 cytokine concentration / IL-22 cytokine concentration / IL-27 cytokine concentration / TNF-α cytokine concentration / IFN-γ cytokine concentration: substance 10^−9M
Summary of the method: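 T-cells from secondary lymphatic organs of naïve C57BL/6 mice, stimulated with PMA/Ionomycin or IFN-γ; supernatant cytokines measured by 13-plex FACS 48 h and 72 h after stimulation. In another run, PMA/Ionomycin-stimulated cells received compounds at 10^−7, 10^−9 and 10^−11 M, with IFN-γ, IL-17 and IL-10 measured by Luminex.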

primary human T-cells = assay: Cytokine secretion on protein level in activated primary human T-cells (13-plex FACS / Luminex, supernatant); format: cell-based; conditions: for IL-1 cytokine concentration / IL-2 cytokine concentration / IL-4 cytokine concentration / IL-5 cytokine concentration / IL-6 cytokine concentration / IL-9 cytokine concentration / IL-10 cytokine concentration / IL-12p70 cytokine concentration / IL-13 cytokine concentration / IL-17 cytokine concentration / IL-22 cytokine concentration / TNF-α cytokine concentration / INF-α cytokine concentration: substance 10^−9M
Summary of the method: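 PMA/Ionomycin- or IFN-γ-activated cells (48 h) treated with tripeptides; supernatant 13-plex FACS at 48 h and 72 h post-stimulation. Luminex run: PMA/Ionomycin plus compound at 10^−7, 10^−9, 10^−11 M; IFN-γ, IL-17, IL-10 for T cells, IFN-γ for HaCaT.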

[1] = tested on: human keratinocyte cell line (HaCaT); assay: Cytokine secretion on protein level in activated human keratinocyte cell line HaCaT (13-plex FACS / Luminex, supernatant); format: cell-based; conditions: for IL-1 cytokine concentration / IL-2 cytokine concentration / IL-4 cytokine concentration / IL-5 cytokine concentration / IL-6 cytokine concentration / IL-9 cytokine concentration / IL-10 cytokine concentration / IL-12p70 cytokine concentration / IL-13 cytokine concentration / IL-17 cytokine concentration / IL-22 cytokine concentration / TNF-α cytokine concentration / IFN-γ cytokine concentration: substance 10^−9M
Summary of the method: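 Cytokine protein in supernatant is read by multiplex FACS or Luminex. Tripeptide-treated HaCaT cells or blood-derived human T-cells are stimulated beforehand with PMA/Ionomycin or IFN-γ. The most relevant analytes are IL-1, IL-2, IL-6, IL-12p70, IL-17, IFN-γ and TNF-α, sampled 48 h and 72 h after stimulation.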

[2] = primary murine T-cells stimulated with IFN-γ
[3] = primary murine T-cells stimulated with PBS
[4] = primary murine T-cells stimulated with PMA/Ionomycin
[5] = primary human T-cells stimulated with IFN-γ
[6] = primary human T-cells stimulated with PBS
[7] = primary human T-cells stimulated with PMA/Ionomycin
[8] = HaCaT stimulated with PMA/Ionomycin

H-(L)-Nle-(L)-Pro-Aib-OH [Example 12] was tested, and the “secretion / expression of pro-inflammatory cytokines (supernatant)” value (“secretion / expression” below) (primary murine T-cells; activated primary murine T-cells) was “able to reduce”, the IL-1 cytokine concentration (primary murine T-cells; [2]) was 86.08 pg/mL and the IL-2 cytokine concentration (primary murine T-cells; [2]) was 88.9 pg/mL. For the same substance, the IL-4 cytokine concentration (primary murine T-cells; [2]) was 34.22 pg/mL, the IL-5 cytokine concentration (primary murine T-cells; [2]) was 221.57 pg/mL and the IL-6 cytokine concentration (primary murine T-cells; [2]) was 110.7 pg/mL. The IL-10 cytokine concentration (primary murine T-cells; [2]) was 1130.01 pg/mL, the IL-13 cytokine concentration (primary murine T-cells; [2]) was 0 pg/mL and the IL-17 cytokine concentration (primary murine T-cells; [2]) was 72.21 pg/mL. The IL-21 cytokine concentration (primary murine T-cells; [2]) was 40.2 pg/mL, the IL-22 cytokine concentration (primary murine T-cells; [2]) was 42.98 pg/mL and the IL-27 cytokine concentration (primary murine T-cells; [2]) was 12.5 pg/mL. It also gave a TNF-α cytokine concentration (primary murine T-cells; [2]) of 31.88 pg/mL, an IFN-γ cytokine concentration (primary murine T-cells; [3]) of 0 pg/mL and an IL-1 cytokine concentration (primary murine T-cells; [3]) of 61.52 pg/mL. It also gave an IL-2 cytokine concentration (primary murine T-cells; [3]) of 189.72 pg/mL, an IL-4 cytokine concentration (primary murine T-cells; [3]) of 32.24 pg/mL and an IL-5 cytokine concentration (primary murine T-cells; [3]) of 331.87 pg/mL. The IL-6 cytokine concentration (primary murine T-cells; [3]) was 223.98 pg/mL, the IL-10 cytokine concentration (primary murine T-cells; [3]) was 872.36 pg/mL and the IL-13 cytokine concentration (primary murine T-cells; [3]) was 0 pg/mL. The IL-17 cytokine concentration (primary murine T-cells; [3]) was 0 pg/mL, the IL-21 cytokine concentration (primary murine T-cells; [3]) was 69.64 pg/mL and the IL-22 cytokine concentration (primary murine T-cells; [3]) was 76.71 pg/mL. The IL-27 cytokine concentration (primary murine T-cells; [3]) was 71.85 pg/mL, the TNF-α cytokine concentration (primary murine T-cells; [3]) was 74.9 pg/mL and the IFN-γ cytokine concentration (primary murine T-cells; [4]) was 1298.02 pg/mL. For the same substance, the IL-1 cytokine concentration (primary murine T-cells; [4]) was 167.79 pg/mL, the IL-2 cytokine concentration (primary murine T-cells; [4]) was 98.57 pg/mL and the IL-4 cytokine concentration (primary murine T-cells; [4]) was 90.14 pg/mL. The IL-5 cytokine concentration (primary murine T-cells; [4]) was 242.24 pg/mL, the IL-6 cytokine concentration (primary murine T-cells; [4]) was 116.16 pg/mL and the IL-10 cytokine concentration (primary murine T-cells; [4]) was 1255.25 pg/mL. The IL-13 cytokine concentration (primary murine T-cells; [4]) was 0 pg/mL, the IL-17 cytokine concentration (primary murine T-cells; [4]) was 79.1 pg/mL and the IL-21 cytokine concentration (primary murine T-cells; [4]) was 0 pg/mL. It also gave an IL-22 cytokine concentration (primary murine T-cells; [4]) of 57.07 pg/mL, an IL-27 cytokine concentration (primary murine T-cells; [4]) of 80.09 pg/mL and a TNF-α cytokine concentration (primary murine T-cells; [4]) of 50.73 pg/mL. For the same substance, the “secretion / expression” value (primary human T-cells; activated primary human T-cells) was “able to reduce”, the IL-1 cytokine concentration (primary human T-cells; [5]) was 44.77 pg/mL and the IL-2 cytokine concentration (primary human T-cells; [5]) was 0 pg/mL. For the same substance, the IL-4 cytokine concentration (primary human T-cells; [5]) was 0 pg/mL, the IL-5 cytokine concentration (primary human T-cells; [5]) was 0 pg/mL and the IL-6 cytokine concentration (primary human T-cells; [5]) was 60.44 pg/mL. The IL-9 cytokine concentration (primary human T-cells; [5]) was 7.67 pg/mL, the IL-10 cytokine concentration (primary human T-cells; [5]) was 84.25 pg/mL and the IL-12p70 cytokine concentration (primary human T-cells; [5]) was 0 pg/mL. For the same substance, the IL-13 cytokine concentration (primary human T-cells; [5]) was 0 pg/mL, the IL-17 cytokine concentration (primary human T-cells; [5]) was 0 pg/mL and the IL-22 cytokine concentration (primary human T-cells; [5]) was 0 pg/mL. The TNF-α cytokine concentration (primary human T-cells; [5]) was 41.38 pg/mL, the IL-1 cytokine concentration (primary human T-cells; [6]) was 0 pg/mL and the IL-2 cytokine concentration (primary human T-cells; [6]) was 0 pg/mL. The IL-4 cytokine concentration (primary human T-cells; [6]) was 0 pg/mL, the IL-5 cytokine concentration (primary human T-cells; [6]) was 0 pg/mL and the IL-6 cytokine concentration (primary human T-cells; [6]) was 91.86 pg/mL. The IL-9 cytokine concentration (primary human T-cells; [6]) was 0 pg/mL, the IL-10 cytokine concentration (primary human T-cells; [6]) was 189.65 pg/mL and the IL-12p70 cytokine concentration (primary human T-cells; [6]) was 0 pg/mL. It also gave an IL-13 cytokine concentration (primary human T-cells; [6]) of 0 pg/mL, an IL-17 cytokine concentration (primary human T-cells; [6]) of 104.68 pg/mL and an IL-22 cytokine concentration (primary human T-cells; [6]) of 0 pg/mL. For the same substance, the INF-α cytokine concentration (primary human T-cells; [6]) was 0 pg/mL, the TNF-α cytokine concentration (primary human T-cells; [6]) was 41.38 pg/mL and the IL-1 cytokine concentration (primary human T-cells; [7]) was 548.85 pg/mL. It also gave an IL-2 cytokine concentration (primary human T-cells; [7]) of 2751.28 pg/mL, an IL-4 cytokine concentration (primary human T-cells; [7]) of 73.38 pg/mL and an IL-5 cytokine concentration (primary human T-cells; [7]) of 328.24 pg/mL. The IL-6 cytokine concentration (primary human T-cells; [7]) was 1046.79 pg/mL, the IL-9 cytokine concentration (primary human T-cells; [7]) was 286.89 pg/mL and the IL-10 cytokine concentration (primary human T-cells; [7]) was 992.02 pg/mL. The IL-12p70 cytokine concentration (primary human T-cells; [7]) was 0 pg/mL, the IL-13 cytokine concentration (primary human T-cells; [7]) was 1026.08 pg/mL and the IL-17 cytokine concentration (primary human T-cells; [7]) was 1355.07 pg/mL. The IL-22 cytokine concentration (primary human T-cells; [7]) was 0 pg/mL, the INF-α cytokine concentration (primary human T-cells; [7]) was 9454.26 pg/mL and the TNF-α cytokine concentration (primary human T-cells; [7]) was 2985.72 pg/mL. The “activity (reduction of pro-inflammatory cytokines) relative to K(D)PT” value (primary human T-cells; second experiment, all three cellular models) was “comparable”, the IL-1 cytokine concentration ([1]; HaCaT stimulated with IFN-γ) was 9.31 pg/mL and the IL-2 cytokine concentration ([1]; HaCaT stimulated with IFN-γ) was 0 pg/mL. It also gave an IL-4 cytokine concentration ([1]; HaCaT stimulated with IFN-γ) of 69.91 pg/mL, an IL-5 cytokine concentration ([1]; HaCaT stimulated with IFN-γ) of 0 pg/mL and an IL-6 cytokine concentration ([1]; HaCaT stimulated with IFN-γ) of 297.09 pg/mL. It also gave an IL-9 cytokine concentration ([1]; HaCaT stimulated with IFN-γ) of 0 pg/mL, an IL-10 cytokine concentration ([1]; HaCaT stimulated with IFN-γ) of 0 pg/mL and an IL-12p70 cytokine concentration ([1]; HaCaT stimulated with IFN-γ) of 0 pg/mL. It also gave an IL-13 cytokine concentration ([1]; HaCaT stimulated with IFN-γ) of 195.68 pg/mL, an IL-17 cytokine concentration ([1]; HaCaT stimulated with IFN-γ) of 56.13 pg/mL and an IL-22 cytokine concentration ([1]; HaCaT stimulated with IFN-γ) of 0 pg/mL. For the same substance, the TNF-α cytokine concentration ([1]; HaCaT stimulated with IFN-γ) was 0 pg/mL, the IFN-γ cytokine concentration ([1]; HaCaT stimulated with PBS) was 0 pg/mL and the IL-1 cytokine concentration ([1]; HaCaT stimulated with PBS) was 0 pg/mL. It also gave an IL-2 cytokine concentration ([1]; HaCaT stimulated with PBS) of 0 pg/mL, an IL-4 cytokine concentration ([1]; HaCaT stimulated with PBS) of 0 pg/mL and an IL-5 cytokine concentration ([1]; HaCaT stimulated with PBS) of 0 pg/mL. For the same substance, the IL-6 cytokine concentration ([1]; HaCaT stimulated with PBS) was 56.87 pg/mL, the IL-9 cytokine concentration ([1]; HaCaT stimulated with PBS) was 4.96 pg/mL and the IL-10 cytokine concentration ([1]; HaCaT stimulated with PBS) was 69.45 pg/mL. The IL-12p70 cytokine concentration ([1]; HaCaT stimulated with PBS) was 0 pg/mL, the IL-13 cytokine concentration ([1]; HaCaT stimulated with PBS) was 193.75 pg/mL and the IL-17 cytokine concentration ([1]; HaCaT stimulated with PBS) was 0 pg/mL. It also gave an IL-22 cytokine concentration ([1]; HaCaT stimulated with PBS) of 0 pg/mL, a TNF-α cytokine concentration ([1]; HaCaT stimulated with PBS) of 5.55 pg/mL and an IFN-γ cytokine concentration [1, 8] of 22.77 pg/mL. For the same substance, the IL-1 cytokine concentration [1, 8] was 0 pg/mL, the IL-2 cytokine concentration [1, 8] was 0 pg/mL and the IL-4 cytokine concentration [1, 8] was 0 pg/mL. It also gave an IL-5 cytokine concentration [1, 8] of 0 pg/mL, an IL-6 cytokine concentration [1, 8] of 158.4 pg/mL and an IL-9 cytokine concentration [1, 8] of 0 pg/mL. It also gave an IL-10 cytokine concentration [1, 8] of 86.04 pg/mL, an IL-12p70 cytokine concentration [1, 8] of 0 pg/mL and an IL-13 cytokine concentration [1, 8] of 0 pg/mL. The IL-17 cytokine concentration [1, 8] was 25.98 pg/mL, the IL-22 cytokine concentration [1, 8] was 0 pg/mL and the TNF-α cytokine concentration [1, 8] was 0 pg/mL. The “secretion / expression” value ([1]; activated human keratinocytes) was “able to reduce”.
